Data on ten molecules can be found in patent US20220024921A1, “1,3,4-OXADIAZOLONE COMPOUND AND PHARMACEUTICAL” (NIPPON SHINYAKU CO., LTD., priority 2018, published 2022).

In assay [1] the target is T1, PIM3 serine/threonine kinase (Homo sapiens, UniProt Q86V86).
T1 construct: purchased Carna Bioscience, Inc
Nature of the assay: PIM3 serine/threonine kinase inhibitory effect. Format: biochemical. The conditions noted are these: PIM3 serine/threonine kinase activity; ATP 10 μM; 30° C., 30 minutes. As for the experimental part: (§1) Each test substance was prepared to 10 mM with dimethylsulfoxide (DMSO), and further diluted with DMSO so as to have concentrations of 1000, 300, 100, 30, 10, 3, 1, 0.3, 0.1, 0.03, 0.01, and 0.001 μM. Moreover, each dilution was further diluted 33.3-fold with an assay buffer to prepare a test substance solution. The composition of the assay buffer was 50 mM HEPES (pH 7.0), 0.02% NaN3, 0.01% Bovine Serum Albumin, 0.1 mM Orthovanadate, 1 mM Dithiothreitol, and 5 mM MgCl2.
(§2) 5 μL of each test substance solution was added to 384-well plates (n=2), and then 2.5 μL of a substrate solution (substrate 3-biotin (Cisbio Bioassays SAS), final concentration in the reaction solution: 0.5 μM) and 2.5 μL of an ATP solution (in the cases of PIM1, 2, 3, the final concentrations in the reaction solutions were 40, 2, and 10 μM, respectively) were added, 5 μL of each of PIM1, 2, 3 serine/threonine kinase solutions (Carna Bioscience, Inc., the final concentrations in the reaction solutions were 0.15, 1.6, and 0.25 μg/ml, respectively) was finally added, and the mixture was reacted at 30° C. for 30 minutes. The test substance concentrations in the reaction solutions are 10000, 3000, 1000, 300, 100, 30, 10, 3, 1, 0.3, 0.1, and 0.01 nM.
(§3) Thereafter, 15 μL of each detection solution (62.5 nM Streptavidin-XL665 (Cisbio Bioassays SAS), […] STK antibody-Cryptate (Cisbio Bioassays SAS), 50 mM HEPES (pH 7.0), 0.8 M KF, 0.1% Bovine Serum Albumin, 20 mM ethylenediaminetetraacetic acid) was added to each well. After stirring, the mixture was reacted at 30° C. for 1 hour. Absorbance (OD620, OD665) at 620 and 665 nm was measured with a microplate reader (SpectraMax M5e, Molecular Devices, LLC).
(§4) Non-linear regression analysis was performed by an SAS system (SAS Institute Inc.) using the ratio (OD665/OD620) of the measured absorbance to calculate a test substance concentration (IC50) that inhibits PIM1 serine/threonine kinase activity by 50%.
(§5) For the compounds with the following Example numbers, in addition to the above PIM1 serine/threonine kinase activity (IC50), test substance concentrations (IC50) that inhibit PIM2 serine/threonine kinase activity and PIM3 serine/threonine kinase activity by 50% were calculated.

Assay [2] has as its target PIM1 transgenic cells (Ba/F3) (Homo sapiens, UniProt P11309). Nature of the assay: Proliferation inhibitory effect on PIM1 transgenic cells. Format: cell-based, mouse. The conditions noted are these: proliferation inhibition, 72 hours, Cell Counting Kit-8, read-out: PIM1 IC50. The method in brief: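 Mouse Ba/F3 pro-B cells were retrovirally transduced with human PIM1 so that their proliferation depends on PIM1. Cells were treated with compound at 1–10000 nM final for 72 h, then read by CCK-8 (OD450−OD650). Inhibition was set against DMSO (0%) and no-cell blank (100%), and IC50 was obtained by two-parameter logistic regression.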
A general note: Tetrazolium dyes change colour on reduction, which living cells bring about.

Assay [3] deals with T2, PIM2 serine/threonine kinase (Homo sapiens, UniProt Q9P1W9).
T2 construct: purchased Carna Bioscience, Inc
T2 sequence (Q9P1W9 whole entry): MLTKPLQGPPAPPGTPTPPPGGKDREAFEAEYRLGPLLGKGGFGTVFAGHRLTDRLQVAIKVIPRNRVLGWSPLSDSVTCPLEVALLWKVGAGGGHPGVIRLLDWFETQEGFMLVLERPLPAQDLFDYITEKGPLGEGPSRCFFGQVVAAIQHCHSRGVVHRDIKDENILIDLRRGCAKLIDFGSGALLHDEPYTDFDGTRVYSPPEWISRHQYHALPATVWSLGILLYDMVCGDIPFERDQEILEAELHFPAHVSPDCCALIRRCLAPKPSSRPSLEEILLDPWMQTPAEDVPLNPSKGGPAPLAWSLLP
As to the kind of experiment: PIM2 serine/threonine kinase inhibitory effect. It counts as biochemical. The note with it: PIM2 serine/threonine kinase activity; ATP 2 μM; 30° C., 30 minutes. As for the experimental part: as §1, §2, §3, §4, §5

Assay [4] concerns the target T3, PIM1 serine/threonine kinase (Homo sapiens, UniProt P11309).
T3 construct: purchased Carna Bioscience, Inc
Nature of the assay: PIM1 serine/threonine kinase inhibitory effect. The conditions noted are these: PIM1 serine/threonine kinase activity; ATP 40 μM; 30° C., 30 minutes. Format: biochemical. The method in brief:
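Recombinant PIM1 (0.15 μg/ml final) with 0.5 μM biotinylated substrate and 40 μM ATP in pH 7.0 HEPES/MgCl2 buffer, 30 min at 30° C. Compound range was 0.01–10000 nM final, n=2. HTRF detection with streptavidin-XL665 and anti-phospho antibody-cryptate, 1 h; IC50 from non-linear regression of the 665/620 ratio.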

The structures appear in SMILES notation. pIC50: −log10 of the molar value. Where a name gives a salt, the structure may show the parent alone.

T3 sequence (P11309 whole entry): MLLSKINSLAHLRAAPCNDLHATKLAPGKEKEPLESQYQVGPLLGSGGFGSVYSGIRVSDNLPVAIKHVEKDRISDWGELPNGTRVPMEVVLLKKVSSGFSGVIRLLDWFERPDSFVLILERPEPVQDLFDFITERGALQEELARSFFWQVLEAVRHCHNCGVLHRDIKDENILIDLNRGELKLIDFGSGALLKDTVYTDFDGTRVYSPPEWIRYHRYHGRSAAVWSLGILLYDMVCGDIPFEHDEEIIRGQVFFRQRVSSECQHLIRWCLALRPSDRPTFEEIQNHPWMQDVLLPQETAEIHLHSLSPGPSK
Sequence of PIM1 transgenic cells (Ba/F3) (P11309 whole entry, stated change not applied): as the sequence (P11309 whole entry) above

Take `N[C@H]1CC[C@H](Nc2cc(-c3n[nH]c(=O)o3)ccc2C(F)(F)F)CC1` [Example 34, 5-[3-{[(1r,4r)-4-aminocyclohexyl]amino}-4-(trifluoromethyl)phenyl]-1,3,4-oxadiazol-2(3H)-one hydrochloride]: the pIC50 (commonly the IC50 on a negative log10 scale, so that one unit is a factor of ten) in assay [1] was 7.80; in assay [3], 7.60; in assay [4], 8.40. Moreover, the GI50 in assay [2] was determined as 910 nM.
On to `CC(Nc1cc(-c2n[nH]c(=O)o2)ccc1C(F)(F)F)C1CCNCC1` (centres unmarked) [Example 52, 5-[3-{[1-(piperidin-4-yl)ethyl]amino}-4-(trifluoromethyl)phenyl]-1,3,4-oxadiazol-2(3H)-one hydrochloride], for which the negative logarithm of the IC50 (pIC50) in assay [1] was 7.92; in assay [3], 7.72; in assay [4] it was 8.38. Further, the GI50 in assay [2] amounted to 59 nM.
Take `NC[C@H]1CC[C@H](Nc2cc(-c3n[nH]c(=O)o3)ccc2C(F)(F)F)CC1` [Example 37, 5-[3-{[(1r,4r)-4-(aminomethyl)cyclohexyl]amino}-4-(trifluoromethyl)phenyl]-1,3,4-oxadiazol-2(3H)-one hydrochloride]: the results for the pIC50 in assay [1], in assay [3] and in assay [4] were 8.00, 7.96 and 8.70, respectively. Moreover, the GI50 in assay [2] turned out to be 280 nM.
Regarding `C[C@@H](Nc1cc(-c2n[nH]c(=O)o2)ccc1C(F)(F)F)C1CCNCC1` [Example 59, 5-[3-{[(1R)-1-(piperidin-4-yl)ethyl]amino}-4-(trifluoromethyl)phenyl]-1,3,4-oxadiazol-2(3H)-one hydrochloride], the values for the pIC50 in assay [1], in assay [3] and in assay [4] were 7.07, 7.01 and 7.80, respectively. Besides, the GI50 in assay [2] was 320 nM.
Consider `N[C@H]1CC[C@H](CNc2cc(-c3n[nH]c(=O)o3)cc(F)c2C(F)(F)F)CC1` [Example 69, 5-[3-({[(1r,4r)-4-aminocyclohexyl]methyl}amino)-5-fluoro-4-(trifluoromethyl)phenyl]-1,3,4-oxadiazol-2(3H)-one hydrochloride], for which the values for the pIC50 in assay [1], in assay [3] and in assay [4] were 8.40, 8.15 and 8.96, respectively. For the same molecule, the GI50 in assay [2] is 37 nM.
As to `N[C@H]1CC[C@H](CNc2cc(-c3n[nH]c(=O)o3)ccc2OC(F)(F)F)CC1` [Example 66, 5-[3-({[(1r,4r)-4-aminocyclohexyl]methyl}amino)-4-(trifluoromethoxy)phenyl]-1,3,4-oxadiazol-2(3H)-one hydrochloride], the negative logarithm of the IC50 (pIC50) in assay [1] was 7.74; in assay [3] it was 7.05; in assay [4], 8.33. Besides, the GI50 in assay [2] came to 190 nM.
Take `N[C@H]1CC[C@H](CNc2cc(-c3n[nH]c(=O)o3)ccc2Cl)CC1` [Example 61, 5-[3-({[(1r,4r)-4-aminocyclohexyl]methyl}amino)-4-chlorophenyl]-1,3,4-oxadiazol-2(3H)-one hydrochloride]: the pIC50 is 8.30 in assay [1], 7.72 in assay [3] and 9.00 in assay [4]. Moreover, the GI50 in assay [2] was found to be 44 nM.
With `N[C@H]1CC[C@H](CNc2cc(-c3n[nH]c(=O)o3)ccc2C(F)(F)F)CC1` [Example 55, 5-[3-({[(1r,4r)-4-aminocyclohexyl]methyl}amino)-4-(trifluoromethyl)phenyl]-1,3,4-oxadiazol-2(3H)-one hydrochloride], the negative logarithm of the IC50 (pIC50) in assay [1] is 8.30; in assay [3] it was 7.85; in assay [4], 9.15. Also, the GI50 in assay [2] stood at 34 nM.
Consider `O=c1[nH]nc(-c2ccc(C(F)(F)F)c(-c3cncc(N4CCNCC4)c3)c2)o1` [Example 25, 5-{3-[5-(piperazin-1-yl)pyridin-3-yl]-4-(trifluoromethyl)phenyl}-1,3,4-oxadiazol-2(3H)-one dihydrochloride], for which the pIC50 in assay [1] is 6.13; in assay [3], 6.11; in assay [4], 6.74.
Regarding `NCc1cccc(-c2cc(-c3n[nH]c(=O)o3)ccc2Cl)c1` [Example 18, 5-[3′-(aminomethyl)-6-chloro[1,1′-biphenyl]-3-yl]-1,3,4-oxadiazol-2(3H)-one hydrochloride], the pIC50 in assay [1] is 6.47; in assay [3], 6.66; in assay [4] it was 7.19.
